Measured values as given in patent US8987320B2, “Solid salt forms of a pyrrole substituted 2-indolinone” (Zoetis LLC, priority 2005, dated 2015).
In brackets after ≈: the same amount, converted by molar mass. One block for each compound: values may come before it.

Columns and labels:
[1] = Solubility of Compound I in pH 6 phosphate buffer; format: physicochemical; conditions: aqueous buffer; pH 6 phosphate buffer at 25° C.
Protocol: Compound I readily crystallizes. Its solubility is about 10 μg/mL in pH 6 phosphate buffer at 25° C. When the compound was synthesized, very fine particles precipitated out of solution during the last step of synthesis. Subsequent isolation of these fine particles by filtration was slow, and a hard cake resulted after filtration. There is a need for a salt of Compound I which has physical stability and desirable physical properties.

[2] = Dynamic moisture sorption gravimetry (DMSG) of salts of Compound I; format: physicochemical
Protocol: Dynamic Moisture Sorption Gravimetry (DMSG).
DMSG isotherm was collected on a temperature controlled atmospheric microbalance. Approximately 10 mg samples were placed in the sample pan of the balance. The humidity was sequentially varied from room relative humidity (RH) to 0% RH and was then increased to 90% RH followed by a decrease of RH to 0% again in 3% RH steps. The mass was then measured every two minutes. The RH was stepped to the next target value when change of the sample mass was less than 0.5 μg in 10 min. The Visual Basic program dmsgscn2.exe was used to control the data collection and export the information to an Excel spreadsheet.

[3] = design: species or system rodent; conditions: in vivo
Protocol: Based on preclinical work in rodent models, the therapeutic range of Compound I for target inhibition was considered to be 50-100 ng/ml for 12 h of a 24-h dosing period. […] In one animal, the plasma concentration of Compound I phosphate was outside the range of the other samples (0.3 ng/ml).

canine MCTs = conditions: dog, in vivo; cited from earlier work
KIT = conditions: in vitro, cited from earlier work
[4] = Relative physical stability of Compound I phosphate polymorphs standing in solvent; format: physicochemical; conditions: among non-solvated polymorphs, in contact with solvent
Protocol: Such concentrated solutions were prepared by dissolving Compound I free base in about 1 M phosphoric acid. For example, about 70 mg of Compound I free base could be dissolved in 1 mL of 1 M phosphoric acid. However, the amount of Compound I free base and phosphoric acid used depended on the desired concentration and batch size of the solution. In the example in which the precipitate was vacuum filtered immediately after precipitation, about 1 mL of the desired solution was then dripped into about 10 mL of ten anti-solvents to precipitate the salt crystals out. These solvents were water plus acetonitrile (ANC), ethanol, methanol, acetone, acetonitrile, THF, ethyl acetate, hexane, methylene chloride (CH2Cl2), and isopropyl alcohol (IPA). In the example in which the precipitate was vacuum filtered after standing overnight or for three days, the additional solvents of methyl ethyl ketone (MEK) and dioxane were used. Some organic solvents, e.g., ethyl acetate, hexane, CH2C12, are not miscible with water and two layers of solvents were observed. […] In those cases, about 1 mL of methanol was added as a bridging solvent, to increase the miscibility between the two layers. Methanol appeared to work well to increase the miscibility because colorless organic layer became yellow as soon as methanol was added. […] The powder was then analyzed. […]

[5] = Estimation of solubility in various solvents by step-wise solvent addition; format: physicochemical; conditions: 23 °C, organic solvent or mixture, thermodynamic from solid, 23° C., read-out: Estimated solubility
Protocol: Samples of 1-2 mg of Compound I phosphate (lot 35282-CS-51) were transferred to 10 mL glass vials (tared) and were weighed (accurate to 0.1 mg). Solvents were added to the vials (one solvent to each vial) in a step-wise fashion, with 0.5 mL of solvent added at each step. Solvents used were buffer (pH=2), buffer (pH=5), water, methanol, tetrahydrofuran (THF), acetonitrile, and acetone. After each addition, the vial was capped and shaken. The dissolution of solid was visually observed. If no obvious dissolution was observed, more solvent was added immediately. If dissolution was apparent, the vial was left on the bench for at least 30 minutes before the next addition of solvent. This step was repeated until no crystals were visible against a black and a white background. The solubility was then bracketed by dividing the weight of the compound by the final volume and the volume before the last addition. If a solid remained after the addition of 10 mL of solvent, the solubility was expressed as less than the weight divided by the final volume. If the solid was completely dissolved after the first addition of solvent, the solubility was expressed as greater than the weight divided by the solvent volume. All experiments were conducted at room temperature.

solubility [1]: ~0.01 mg/mL (≈ 25.2 µM)
% water at 80% RH [2]: ~1%
therapeutic range for target inhibition (plasma) [3]: 50 to 100 ng/mL
SMILES: Cc1[nH]c(/C=C2\C(=O)Nc3ccc(F)cc32)c(C)c1C(=O)NCCN1CCCC1 [Compound I, 5-[5-fluoro-2-oxo-1,2-dihydro-indol-(3Z)-ylidenemethyl]-2,4-dimethyl-1H-pyrrole-3-carboxylic acid (2-pyrrolidin-1-yl-ethyl)-amide]
canine MCTs with durable objective responses (partial and complete responses) (canine MCTs): 11 of 22 canine MCTs
potency of blocking phosphorylation of wild-type vs ITD mutant KIT (KIT; cellular assays): comparable potency
effect on malignant mast cell lines expressing various forms of mutant KIT (KIT): inhibit KIT phosphorylation, arrest cell proliferation, and induce cell cycle arrest and apoptosis

relative stability of the solid phase [4]: most stable solid phase
SMILES: Cc1[nH]c(/C=C2\C(=O)Nc3ccc(F)cc32)c(C)c1C(=O)NCCN1CCCC1 [Form I]

solubility ([5]; acetone, Acetone): < 0.16 mg/mL
solubility ([5]; acetonitrile, Acetonitrile): < 0.08 mg/mL
solubility ([5]; methanol, methanol): 0.21 to 0.31 mg/mL (≈ 530 to 782 µM)
solubility ([5]; tetrahydrofuran (THF), THF): 0.32 to 0.4 mg/mL (≈ 807 to 1010 µM)
SMILES: Cc1[nH]c(/C=C2\C(=O)Nc3ccc(F)cc32)c(C)c1C(=O)NCCN1CCCC1 [Compound I free base (polymorph Form A), 5-[5-fluoro-2-oxo-1,2-dihydro-indol-(3Z)-ylidenemethyl]-2,4-dimethyl-1H-pyrrole-3-carboxylic acid (2-pyrrolidin-1-yl-ethyl)-amide]

% water at 80% RH [2]: ~3.8%
water at 80 percent humidity ([2]; 80 percent relative humidity): about 3.8%
SMILES: Cc1[nH]c(/C=C2\C(=O)Nc3ccc(F)cc32)c(C)c1C(=O)NCCN1CCCC1.O=C(O)CC(O)(CC(=O)O)C(=O)O [Compound I citrate]
